Experimental data: patent publication US20110152263A1, “COMPOSITION AND METHOD FOR INHIBITING NOROVIRUS INFECTION” (priority 2006, published 2011)

Experiments:
[1] = system: Human cervical carcinoma cells (HeLa); assay: MTS cytotoxicity assay, HeLa cells; format: cell-based; conditions: 3 days, average of three experiments
[2] = biological target: VA207 binding to the Lewis antigens; assay: Saliva-based blocking EIA: VA207 VLP binding to Lewis antigens; design: species or system Norovirus; conditions: VA207 VLP binding to Lewis antigen; read-out: EC50 rVA207 Le
Description: (§1) A saliva based blocking assay offers several advantages for anti-Norovirus agent screening. First, the assay is a solid phase blocking assay which is simple and suitable for large scale screening. Second, the source of HBGAs used in the assay was from healthy human volunteers, which is likely to represent the natural forms of Norovirus receptors. Third, the assay is highly sensitive and specific. Finally, a panel of saliva samples can be assembled from different individuals representing different blood types, from which the results obtained in primary screenings can be validated.
(§2) To optimize the blocking assays, we have titrated all reagents used in the assays including the VLPs, the first and second antibodies, the blocking reagent (dried cow milk), and a panel of saliva samples from different donors. […] For comparison of daily results, eight control wells containing everything but compounds were included in each plate, and the assays were considered valid when the daily OD450 variations in these wells were less than 20%. Less than 1% of the total screening runs failed in our study.
(§3) Cow milk contains a large amount of variable proteins, lipids and glycans which can easily interfere with the assay particularly when a low concentration of compounds (μM) was used in our screening. To avoid any false-negative results, the step of addition of blotto in the EIA for all screening experiments in this study was removed.
(§4) Baculovirus-expressed recombinant capsid proteins of four Norovirus strains representing four distinct receptor binding patterns were studied: Norovirus strains Norwalk, VA387, VA207, and MOH. The procedures of production of Norovirus VLPs in insect cell Spodoptera frugiperda (Sf9) have described in “Expression, self-assembly, and antigenicity of the Norwalk virus capsid protein”, J Virol 66:6527-32, Jiang et al (1992), and in “Baculovirus expression and antigenic characterization of the capsid proteins of three Norwalk-like viruses”, Arch Virol 147:119-30, Jiang et al. (2002), the disclosures of which are incorporated herein by reference. Briefly, a cDNA from the 3′ end of the genome containing the viral capsid gene (open reading frame 2 [ORF-2] was cloned from the viral RNA extracted from stool specimens. The recombinant baculoviruses carry the viral capsid genes were constructed from the cloned cDNAs using the Bac to Bac expression system according to the manufacture's instructions (Invitrogen Life Technologies, Carlsbad, Calif.). VLPs were partially purified by sucrose gradient centrifugation and stored at −80° C. Protein concentrations were determined by measuring the optical density at 280 nm (OD280) using a GeneQuant spectrophotometer (Pharmacia, Mich.) and by comparison with a bovine serum albumin standard in a sodium dodecyl sulfate-polyacrylamide gel (25). The purity of VLPs used in this study was over 90% which was determined by SDS-PAGE analysis.
(§5) Saliva samples were collected from healthy adult volunteers under an approval of human subject research protocol by the Institutional Review Board at the Cincinnati Children's Hospital Medical Center. Except for gender and race, no other personal information was collected. A total of 5-10 ml of saliva was collected from each volunteer, and the samples were processed immediately after collection. To avoid potential Norovirus-specific antibodies that may interfere in the receptor binding assays, saliva samples were boiled at 100° C. for 10 min, and then centrifuged at 10,000×g for 5 min. The clear supernatant was stored at −80° C. until use. The HBGA types of the saliva samples were determined by enzyme immune assays with monoclonal antibodies specific to human HBGAs (8). Saliva sample from a type A donor was selected for the primary screening, and a total of 25 saliva samples of known ABO, secretor, and Lewis types were selected for further studies to confirm the primary screening results. […]

[3] = system: Norwalk virus binding to the H antigen; assay: Saliva-based blocking EIA: Norwalk virus VLP binding to H antigen; design: species or system Norovirus; conditions: for EC50: Norwalk VLP binding to H antigen, read-out: EC50 rNorwalk H
Description: as §1, §2, §3, §4, §5

[4] = biological target: MOH binding to the A antigen; assay: Saliva-based blocking EIA: MOH VLP binding to A antigen; design: species or system Norovirus; conditions: MOH VLP binding to type A saliva; read-out: EC50 rMOH A
Description: as §1, §2, §3, §4, §5

[5] = biological target: VA387 binding to the B antigen; assay: Saliva-based blocking EIA: VA387 VLP binding to B antigen; design: species or system Norovirus; conditions: for EC50: VA387 VLP binding to B antigen saliva, read-out: EC50 rVA387 B; for inhibition of VA387 binding to the B antigen: one saliva sample
Description: as §1, §2, §3, §4, §5

[6] = system: Norwalk virus binding to the A antigen; assay: Saliva-based blocking EIA: Norwalk virus VLP binding to A antigen; design: species or system Norovirus; conditions: for EC50: Norwalk VLP binding to A antigen, read-out: EC50 rNorwalk A
Description: as §1, §2, §3, §4, §5

[7] = biological target: MOH binding to the B antigen; assay: Saliva-based blocking EIA: MOH VLP binding to B antigen; design: species or system Norovirus; conditions: MOH VLP binding to type B saliva; read-out: EC50 rMOH B
Description: as §1, §2, §3, §4, §5

[8] = biological target: VA387 binding to the H antigen; assay: Saliva-based blocking EIA: VA387 VLP binding to H antigen; design: species or system Norovirus; conditions: for EC50: VA387 VLP binding to H antigen saliva, read-out: EC50 rVA387 H; for inhibition of VA387 binding to the H antigen: one saliva sample
Description: as §1, §2, §3, §4, §5

[9] = biological target: VA387 VLPs binding to the A antigen; assay: Saliva-based blocking EIA: VA387 VLP binding to type A saliva; design: species or system Norovirus; conditions: read-out: EC50 rVA387 A
Description: as §1, §2, §3, §4, §5

Structure (SMILES) | CC50 [1] | EC50 [2] | EC50 [3] | EC50 [4] | EC50 [5] | inhibition of VA387 binding to the B antigen [5] | EC50 [6] | EC50 [7] | EC50 [8] | inhibition of VA387 binding to the H antigen [8] | EC50 [9] | inhibition of Norwalk virus binding to the H antigen [3] | blocking of Norwalk virus binding to the A antigen [6]
Cc1ccc(NC(=O)CC(c2ccccc2)c2ccccc2)cc1C [Compound 9] | 40.3 µM | > 100 µM | > 100 µM | > 100 µM | > 100 µM | did not have any inhibitory activity | > 100 µM | > 100 µM | 47.5 µM | revealed inhibitory activity | 11.7 µM | – | –
CC(C)OC(=O)CC(=O)CSc1nc(-c2ccc(F)cc2)cc(-c2cccs2)c1C#N [Compound 10] | – | > 100 µM | 19.8 µM | > 100 µM | 7.9 µM | dose-dependant inhibition | 35 µM | > 100 µM | 7.5 µM | dose-dependant inhibition | 11.8 µM | inhibited | blocked
O=C(C(=O)c1ccc(C(=O)c2ccc(C(=O)C(=O)c3ccc(Sc4ccccc4)cc3)cc2)cc1)c1ccc(Sc2ccccc2)cc1 [Compound 11] | – | > 100 µM | > 100 µM | > 100 µM | 35.3 µM | dose-dependant inhibition | > 100 µM | > 100 µM | 26.1 µM | dose-dependant inhibition | 12.8 µM | – | –
CCCCc1ccc(NC(=O)c2ccc(C)cc2)cc1 [Compound 12] | – | > 100 µM | 47.8 µM | > 100 µM | 32.5 µM | dose-dependant inhibition | 53 µM | > 100 µM | 28.2 µM | dose-dependant inhibition | 12.8 µM | – | blocked
Cc1cc(O)c(Sc2c(O)cc(C)cc2C(C)(C)c2ccccc2)c(C(C)(C)c2ccccc2)c1 [Compound 13] | 70.6 µM | > 100 µM | > 100 µM | > 100 µM | 49.5 µM | dose-dependant inhibition | > 100 µM | > 100 µM | 48.1 µM | dose-dependant inhibition | 13.6 µM | – | –
CCCOc1ccc(-c2cc(C(=O)N/N=C/c3ccc(OCC)cc3)[nH]n2)cc1 [Compound 14] | 12.3 µM | > 100 µM | > 100 µM | > 100 µM | > 100 µM | did not have any inhibitory activity | > 100 µM | > 100 µM | > 100 µM | did not have any inhibitory activity | 13.7 µM | – | –
FC(F)(F)c1ccc(N/N=C/c2cc(Br)cs2)cc1 [Compound 15] | 7.6 µM | > 100 µM | > 100 µM | > 100 µM | > 100 µM | did not have any inhibitory activity | 22.5 µM | > 100 µM | > 100 µM | did not have any inhibitory activity | 14.1 µM | inhibited | blocked
